Laboratory results as given in the supplement of paper PMC10307832.

Legend:
Assay in all cases: relative viability (nuclei count vs DMSO), 5 days (fraction); higher = more cells survive
Serdemetan + Lapatinib = compound: c1ccc2c(CCNc3ccc(Nc4ccncc4)cc3)c[nH]c2c1 [Serdemetan] + CS(=O)(=O)CCNCc1ccc(-c2ccc3ncnc(Nc4ccc(OCc5cccc(F)c5)c(Cl)c4)c3c2)o1 [Lapatinib] (partner 2 µM)
Outline: (§1)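 Lung cancer cell lines in 1536-well plates got either a single drug or a fixed anchor-drug dose together with five library-drug doses (not always all listed) in √10 steps, by pin tool, on the day after seeding. Nuclei were counted after 5 days, and relative viability is the treated-to-vehicle ratio of nuclei counts. Values are medians of duplicate plates.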

Selisistat + OSI-027 = compound: C1CC(C2=C(C1)C3=C(N2)C=CC(=C3)Cl)C(=O)N [Selisistat] + COc1cccc2cc(-c3nc([C@H]4CC[C@H](C(=O)O)CC4)n4ncnc(N)c34)[nH]c12 [OSI-027] (partner 0.5 µM)
Outline: as §1

Serdemetan + Luminespib = compound: c1ccc2c(CCNc3ccc(Nc4ccncc4)cc3)c[nH]c2c1 [Serdemetan] + CCNC(=O)c1noc(-c2cc(C(C)C)c(O)cc2O)c1-c1ccc(CN2CCOCC2)cc1 [Luminespib] (partner 0.01 µM)
Outline: as §1

Serdemetan + AZD7762 = compound: c1ccc2c(CCNc3ccc(Nc4ccncc4)cc3)c[nH]c2c1 [Serdemetan] + NC(=O)Nc1cc(-c2cccc(F)c2)sc1C(=O)N[C@H]1CCCNC1 [AZD7762] (partner 0.2 µM)
Outline: as §1

| Cell Line | relative viability (Serdemetan + Lapatinib; first compound 0.04 µM) | relative viability (Serdemetan + Lapatinib; first compound 0.1265 µM) | relative viability (Serdemetan + Lapatinib; first compound 1.265 µM) | relative viability (Serdemetan + Lapatinib; first compound 4 µM) | relative viability (Selisistat + OSI-027; first compound 0.4 µM) | relative viability (Selisistat + OSI-027; first compound 1.265 µM) | relative viability (Selisistat + OSI-027; first compound 4 µM) | relative viability (Selisistat + OSI-027; first compound 12.65 µM) | relative viability (Selisistat + OSI-027; first compound 40 µM) | relative viability (Serdemetan + Luminespib; first compound 0.04 µM) | relative viability (Serdemetan + Luminespib; first compound 0.1265 µM) | relative viability (Serdemetan + Luminespib; first compound 1.265 µM) | relative viability (Serdemetan + Luminespib; first compound 4 µM) | relative viability (Serdemetan + AZD7762; first compound 0.04 µM) | relative viability (Serdemetan + AZD7762; first compound 0.1265 µM) | relative viability (Serdemetan + AZD7762; first compound 1.265 µM) | relative viability (Serdemetan + AZD7762; first compound 4 µM) | relative viability (Serdemetan + Lapatinib; first compound 0.4 µM) | relative viability (Serdemetan + Luminespib; first compound 0.4 µM) | relative viability (Serdemetan + AZD7762; first compound 0.4 µM) |
| --- | --- | --- | --- | --- | --- | --- | --- | --- | --- | --- | --- | --- | --- | --- | --- | --- | --- | --- | --- | --- |
| HCC-827 | 0.168 | 0.178 | 0.188 | 0.173 | 0.763 | 0.766 | 0.705 | 0.746 | 0.768 | 0.606 | 0.563 | 0.288 | 0.344 | 0.218 | 0.157 | 0.18 | 0.17 | – | – | – |
| HOP-62 | 0.862 | 1.06 | 0.791 | 0.89 | 0.856 | 0.788 | 0.826 | 0.809 | 0.915 | 0.758 | 0.915 | 0.666 | 0.596 | 0.762 | 0.544 | 0.519 | 0.49 | 0.937 | 0.848 | 0.731 |
| IA-LM | 0.723 | 1 | 0.584 | 0.322 | – | – | – | – | – | – | – | – | – | – | – | – | – | 0.655 | – | – |
| LC-2-ad | 0.916 | 1 | – | 0.913 | 0.987 | – | 0.693 | 0.85 | 0.794 | 0.951 | 0.944 | 0.898 | 0.899 | 0.806 | 0.836 | 0.737 | 0.709 | 0.954 | 0.969 | 0.791 |
| LCLC-103H | – | – | – | – | 0.486 | 0.469 | 0.348 | 0.479 | 0.442 | 0.971 | 1.03 | 0.975 | 0.751 | 0.788 | 0.79 | 0.759 | 0.812 | – | 1 | 0.763 |
| NCI-H441 | – | – | – | – | 0.658 | 0.532 | 0.481 | 0.544 | 0.754 | 0.381 | 0.298 | 0.316 | 0.325 | 1.28 | 1.19 | 0.858 | 0.548 | – | 0.321 | 1.05 |
| NCI-H520 | 0.791 | 0.91 | 0.813 | 0.614 | 0.311 | 0.216 | 0.257 | 0.248 | 0.206 | 0.255 | 0.204 | – | 0.205 | – | – | – | – | 0.813 | 0.232 | – |
| NCI-H522 | – | – | – | – | 0.744 | 0.677 | 0.61 | 0.756 | 0.681 | 1.15 | 1.42 | 0.873 | 1.45 | 0.731 | 0.699 | 1.04 | 0.801 | – | 1.25 | 0.931 |
| NCI-H661 | 0.474 | 0.503 | 0.428 | 0.438 | 0.749 | 0.81 | 0.744 | 0.629 | 0.564 | 0.91 | 0.943 | 0.799 | 0.854 | – | – | – | – | 0.572 | 0.95 | – |
| NCI-H1299 | 0.939 | 0.984 | 0.78 | 0.767 | – | – | – | – | – | – | – | – | – | – | – | – | – | 0.985 | – | – |
| NCI-H1563 | 0.637 | 0.892 | 0.799 | 0.723 | 0.761 | 0.761 | 0.76 | 0.655 | 0.703 | 0.499 | 0.481 | 0.458 | 0.436 | – | – | – | – | 0.527 | 0.555 | – |
| NCI-H1648 | – | – | – | – | 0.274 | 0.274 | 0.264 | 0.237 | 0.277 | – | – | – | – | – | 0.809 | 0.594 | 0.482 | – | – | 0.762 |
| NCI-H1650 | 0.718 | 0.768 | 0.846 | 0.558 | 0.633 | 0.517 | 0.551 | 0.534 | 0.611 | 0.212 | 0.213 | 0.177 | 0.184 | – | – | – | – | 0.599 | 0.205 | – |
| NCI-H1703 | 1.38 | 1.05 | 1.09 | 0.885 | – | – | – | – | – | – | – | – | – | 0.176 | 0.121 | – | 0.108 | 1.07 | – | 0.121 |
| NCI-H2009 | 0.851 | 1.03 | 0.822 | 0.691 | 0.659 | 0.662 | 0.424 | 0.509 | 0.535 | 0.925 | 0.979 | 1.01 | 0.888 | – | – | – | – | 0.889 | 0.997 | – |
| NCI-H2023 | 0.709 | 0.861 | 0.387 | 0.253 | 0.492 | 0.405 | 0.347 | 0.401 | 0.406 | 0.818 | 0.857 | 0.334 | 0.193 | – | – | – | – | 0.742 | 0.721 | – |
| NCI-H2228 | 1.07 | 1.03 | 0.431 | 0.391 | 0.57 | 0.541 | 0.484 | 0.651 | 0.569 | 0.119 | 0.201 | 0.16 | 0.145 | – | – | – | – | 0.984 | 0.159 | – |
| NCI-H2342 | – | – | – | – | 0.654 | 0.589 | 0.493 | 0.577 | 0.628 | 0.738 | 0.722 | 0.508 | 0.506 | 0.516 | 0.467 | 0.39 | 0.457 | – | 0.704 | 0.545 |
| SK-LU-1 | 0.758 | 0.772 | 0.781 | 0.612 | 0.431 | 0.366 | 0.334 | 0.359 | 0.416 | 0.19 | 0.201 | – | 0.207 | – | – | – | – | 0.822 | 0.223 | – |
| SK-MES-1 | 0.416 | 0.503 | 0.381 | 0.387 | 0.638 | 0.668 | 0.657 | 0.437 | 0.646 | 0.789 | 0.731 | 0.617 | 0.772 | – | – | – | – | 0.466 | 0.799 | – |
| SW 900 | – | – | – | – | 0.447 | 0.57 | 0.462 | 0.495 | 0.484 | 0.185 | 0.168 | 0.164 | 0.176 | 0.647 | 0.652 | 0.437 | 0.359 | – | 0.196 | 0.616 |
| SW 1573 | 1.09 | 1.11 | 0.93 | 0.596 | 0.704 | 0.616 | 0.664 | 0.772 | 0.545 | 0.343 | 0.161 | 0.113 | 0.192 | – | – | – | – | 1.05 | 0.215 | – |
| UMC-11 | 0.953 | 0.915 | 0.703 | 0.886 | 0.498 | 0.398 | 0.385 | 0.476 | 0.46 | 0.938 | 1.01 | – | 0.852 | – | – | – | – | 1.03 | – | – |
